Test results from ChEMBL document CHEMBL1201862, “PubChem BioAssay data set” (2004).
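Five concentrations, 48 hours, 96-well plates. GI50 = concentration required for 50% inhibition of growth.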 The source made the active and inactive calls. Rule as the data show it: active = GI50 up to about 1.1 µM and inactive = higher.

Columns and labels:
Assay in all cases: inhibition of tumour cell growth, NCI panel, 48 h
NCI-H226 = test system: NCI-H226
UACC-62 = test system: UACC-62
COLO 205 = test system: COLO 205
HL-60 = test system: HL-60
MOLT-4 = test system: MOLT-4
IGROV-1 = test system: IGROV-1
MDA-N = test system: MDA-N
SF-295 = test system: SF-295
T47D = test system: T47D
SK-MEL-28 = test system: SK-MEL-28
PC-3 = test system: PC-3
EKVX = test system: EKVX
RPMI-8226 = test system: RPMI-8226
HCC 2998 = test system: HCC 2998
HCT-15 = test system: HCT-15
SF-268 = test system: SF-268
SN12C = test system: SN12C
UO-31 = test system: UO-31
NCI-H522 = test system: NCI-H522
NCI-H460 = test system: NCI-H460

Compound | GI50 (NCI-H226) | GI50 (UACC-62) | GI50 (COLO 205) | GI50 (HL-60) | GI50 (MOLT-4) | GI50 (IGROV-1) | GI50 (MDA-N) | GI50 (SF-295) | GI50 (T47D) | GI50 (SK-MEL-28) | GI50 (PC-3) | GI50 (EKVX) | GI50 (RPMI-8226) | GI50 (HCC 2998) | GI50 (HCT-15) | GI50 (SF-268) | GI50 (SN12C) | GI50 (UO-31) | GI50 (NCI-H522) | GI50 (NCI-H460)
N#Cc1c(NC(=O)C(F)(F)F)sc2c3c(=O)c4ccccc4c(=O)c=3oc3ccccc3c12 | 8.02 µM (inactive) | 7.55 µM (inactive) | 14.7 µM (inactive) | 4.46 µM (inactive) | 11.7 µM (inactive) | 11.9 µM (inactive) | 18.3 µM (inactive) | 11.7 µM (inactive) | 21.4 µM (inactive) | 20.4 µM (inactive) | 8.93 µM (inactive) | 24.6 µM (inactive) | 12.7 µM (inactive) | 13.9 µM (inactive) | 13.1 µM | 7.98 µM (inactive) | 21.9 µM (inactive) | 19 µM (inactive) | 7.89 µM (inactive) | 17.6 µM (inactive)
O=C(O)CCn1cnc2c(S)ncnc21 | > 100 µM (inactive) | > 100 µM (inactive) | > 100 µM (inactive) | > 100 µM (inactive) | > 100 µM (inactive) | > 100 µM (inactive) | > 100 µM (inactive) | > 100 µM (inactive) | > 100 µM (inactive) | > 100 µM (inactive) | > 100 µM (inactive) | > 100 µM (inactive) | > 100 µM (inactive) | > 100 µM (inactive) | > 100 µM | > 100 µM (inactive) | > 100 µM (inactive) | > 100 µM (inactive) | > 100 µM (inactive) | > 100 µM (inactive)
N#Cc1nn(C2OC(COC(=O)c3ccccc3)C(OC(=O)c3ccccc3)C2OC(=O)c2ccccc2)c2nc[nH]c(=O)c12 (stereo not given) | > 100 µM (inactive) | > 100 µM (inactive) | 27.4 µM (inactive) | 34 µM (inactive) | 36.6 µM (inactive) | 42.7 µM (inactive) | 49.2 µM (inactive) | 46.5 µM (inactive) | 46.2 µM (inactive) | 44.1 µM (inactive) | 45.4 µM (inactive) | 55.7 µM (inactive) | 39.4 µM (inactive) | 78.2 µM (inactive) | 40.1 µM | 43.1 µM (inactive) | 77.4 µM (inactive) | 56.2 µM (inactive) | 36.9 µM (inactive) | 30.4 µM (inactive)
CC(=O)OC(Cc1c(O)c2c(C)cccc2oc1=O)C(C)(C)O (stereo not given) | > 100 µM (inactive) | 77.4 µM (inactive) | > 100 µM (inactive) | 72.6 µM (inactive) | 46.8 µM (inactive) | > 100 µM (inactive) | > 100 µM (inactive) | > 100 µM (inactive) | 60.4 µM (inactive) | 88.1 µM (inactive) | 51.4 µM (inactive) | > 100 µM (inactive) | > 100 µM (inactive) | > 100 µM (inactive) | > 100 µM | 91.4 µM (inactive) | > 100 µM (inactive) | > 100 µM (inactive) | > 100 µM (inactive) | > 100 µM (inactive)
Cc1ccc(C(=O)/C=C2/Nc3ccccc3NC2=O)c(C)c1 | 10.8 µM (inactive) | 5.37 µM (inactive) | 62.1 µM (inactive) | 23.4 µM (inactive) | 45.5 µM (inactive) | 12.7 µM (inactive) | 17.5 µM (inactive) | 9.46 µM (inactive) | 22.1 µM (inactive) | 14.7 µM (inactive) | 18.2 µM (inactive) | 8.77 µM (inactive) | 25.2 µM (inactive) | 29.4 µM (inactive) | 64.3 µM | 6.95 µM (inactive) | 16 µM (inactive) | 8.32 µM (inactive) | 7.73 µM (inactive) | 13.2 µM (inactive)
COC(=O)C1=C(OC(=O)/C(=C/c2ccccc2)c2ccc(Cl)cc2Cl)C(C(=O)OC)[C@@]2(O)[C@@H](C(=O)OC)[C@H](C)C[C@@H]1[C@@H]2C(=O)OC (stereo not given in full) | > 100 µM (inactive) | > 100 µM (inactive) | > 100 µM (inactive) | > 100 µM (inactive) | > 100 µM (inactive) | > 100 µM (inactive) | > 100 µM (inactive) | > 100 µM (inactive) | > 100 µM (inactive) | > 100 µM (inactive) | > 100 µM (inactive) | > 100 µM (inactive) | > 100 µM (inactive) | > 100 µM (inactive) | > 100 µM | > 100 µM (inactive) | > 100 µM (inactive) | > 100 µM (inactive) | > 100 µM (inactive) | > 100 µM (inactive)
COc1ccc(NC(=S)N/N=C/c2cccc(C)n2)cc1 | 10.2 µM (inactive) | 2.24 µM (inactive) | 2.63 µM (inactive) | 1.84 µM (inactive) | 3.07 µM (inactive) | 2.37 µM (inactive) | 1.41 µM (inactive) | 4.09 µM (inactive) | 3.62 µM (inactive) | 5.68 µM (inactive) | 4.58 µM (inactive) | 5.11 µM (inactive) | 3.68 µM (inactive) | 8.41 µM (inactive) | 2.31 µM | 3.94 µM (inactive) | 5.79 µM (inactive) | 3.33 µM (inactive) | 0.203 µM (active) | 3.46 µM (inactive)
CSc1nc(C)c(CCOC(C)=O)c(Cl)n1 | > 100 µM (inactive) | > 100 µM (inactive) | > 100 µM (inactive) | > 100 µM (inactive) | > 100 µM (inactive) | > 100 µM (inactive) | > 100 µM (inactive) | > 100 µM (inactive) | > 100 µM (inactive) | > 100 µM (inactive) | > 100 µM (inactive) | > 100 µM (inactive) | > 100 µM (inactive) | > 100 µM (inactive) | > 100 µM | > 100 µM (inactive) | > 100 µM (inactive) | > 100 µM (inactive) | > 100 µM (inactive) | > 100 µM (inactive)
C=C(C)COC1CCCCO1 (stereo not given) | > 100 µM (inactive) | > 100 µM (inactive) | > 100 µM (inactive) | > 100 µM (inactive) | > 100 µM (inactive) | > 100 µM (inactive) | > 100 µM (inactive) | > 100 µM (inactive) | > 100 µM (inactive) | > 100 µM (inactive) | > 100 µM (inactive) | > 100 µM (inactive) | > 100 µM (inactive) | > 100 µM (inactive) | > 100 µM | > 100 µM (inactive) | > 100 µM (inactive) | > 100 µM (inactive) | > 100 µM (inactive) | > 100 µM (inactive)
COc1cccc(C2c3cc4c(cc3OC(C)(O)C2C)OCO4)c1O (stereo not given) | 5.12 µM (inactive) | 5.12 µM (inactive) | 2.19 µM (inactive) | 2.82 µM (inactive) | 5.25 µM (inactive) | 5.2 µM (inactive) | 1.48 µM (inactive) | 2.96 µM (inactive) | 3.82 µM (inactive) | 10.5 µM (inactive) | 3.37 µM (inactive) | 13.6 µM (inactive) | 4.17 µM (inactive) | 4.2 µM (inactive) | 3.64 µM | 8.79 µM (inactive) | 5.27 µM (inactive) | 6.14 µM (inactive) | 2.27 µM (inactive) | 3.81 µM (inactive)
Cc1ccc(S(=O)(=O)N/N=C/C(=C/c2ccc(Cl)cc2)CC(/C=N/NS(=O)(=O)c2ccc(C)cc2)=C\c2ccc(Cl)cc2)cc1 | 15 µM (inactive) | 5.08 µM (inactive) | 5 µM (inactive) | 3.59 µM (inactive) | 2.55 µM (inactive) | 5.81 µM (inactive) | 4.45 µM (inactive) | 14 µM (inactive) | 4.78 µM (inactive) | 5.52 µM (inactive) | 4.02 µM (inactive) | 13 µM (inactive) | 2.64 µM (inactive) | 3.21 µM (inactive) | 3.58 µM | 5.06 µM (inactive) | 7.08 µM (inactive) | 5.62 µM (inactive) | 4.03 µM (inactive) | 5.52 µM (inactive)
COC(=O)/C=C\c1ccc2c(c1)CC1(C2)Cc2ccc(/C=C/C(=O)OC)cc2C1 (stereo not given) | > 31.6 µM (inactive) | > 31.6 µM (inactive) | > 31.6 µM (inactive) | > 31.6 µM (inactive) | > 31.6 µM (inactive) | > 31.6 µM (inactive) | > 31.6 µM (inactive) | 21.5 µM (inactive) | > 31.6 µM (inactive) | > 100 µM (inactive) | > 31.6 µM (inactive) | > 31.6 µM (inactive) | > 31.6 µM (inactive) | > 31.6 µM (inactive) | > 31.6 µM | > 100 µM (inactive) | > 31.6 µM (inactive) | > 31.6 µM (inactive) | 17.4 µM (inactive) | > 100 µM (inactive)
O=C(N/N=C\c1ccc2ccccc2c1)Nc1ccc([N+](=O)[O-])cc1 | 29.4 µM (inactive) | 24.7 µM (inactive) | 21.6 µM (inactive) | > 57.9 µM (inactive) | 20 µM (inactive) | 29.7 µM (inactive) | 23.5 µM (inactive) | 22.5 µM (inactive) | 17.9 µM (inactive) | 26.2 µM (inactive) | 17.2 µM (inactive) | 47.3 µM (inactive) | 15.1 µM (inactive) | 22.1 µM (inactive) | 16.8 µM | 27 µM (inactive) | 24.2 µM (inactive) | 23.2 µM (inactive) | 16.3 µM (inactive) | 24.4 µM (inactive)
O=C1/C(=C/c2ccc(Cl)cc2)Oc2ccccc21 | 38.1 µM (inactive) | 58.6 µM (inactive) | 47.1 µM (inactive) | > 100 µM (inactive) | 55.6 µM (inactive) | > 10 µM (inactive) | 37.3 µM (inactive) | 56.5 µM (inactive) | 27.4 µM (inactive) | > 100 µM (inactive) | > 10 µM (inactive) | 22.1 µM (inactive) | 58.2 µM (inactive) | > 100 µM (inactive) | 66.7 µM | 51.6 µM (inactive) | 96.8 µM (inactive) | 16.8 µM (inactive) | 11.7 µM (inactive) | 26.4 µM (inactive)
